The subject of assay [1] is Daudi (human B-lymphoblastoid cell from Burkitt's Lymphoma patient). Briefly: Inhibition of cellular proliferation, Daudi cells (CellTiter-Glo). In kind it is cell-based. To be noted: EC50 measured as illustrated in Example 150 (CellTiter-Glo). Here is the method: (§1) The SupT1 cells were seeded in Costar (Tewksbury, Mass.) 3093 96 well tissue culture treated white walled/clear bottom plates. A nine point dose response dilution series from 10 uM to 1 nM was performed and cell viability was determined after four days as indicated using the CellTiter-Glo® assay (CTG; Promega, Madison, Wis., United States of America) following the manufacturer's recommendations. Plates were read on a BioTek (Winooski, Vt.) Syngergy2 multi-mode plate reader. The Relative Light Units (RLU) were plotted as a result of variable molar concentration and data was analyzed using Graphpad (LaJolla, Calif.) Prism 5 statistical software to determine the IC50 for each compound.
(§2) The compounds listed in Table 1 were tested for the inhibition of cellular proliferation using SupT1 (human T-cell lymphoblastic leukemia) and Daudi (human B-lymphoblastoid cell from Burkitt's Lymphoma patient).

The test system of assay [2] is SupT1 cells (human T-cell lymphoblastic leukemia). Briefly: Inhibition of cellular proliferation, SupT1 cells (CellTiter-Glo). The class given is cell-based. To be noted: SUP-T1, 96 h, cell viability after four days, nine point dilution series 10 uM to 1 nM. Here is the method: as §1, §2

For `CCN1[C@H](C)CN(c2ccc(Nc3ncc4cc5n(c4n3)C3(CCCCC3)CNC5=O)nc2)C[C@@H]1C` [FF], the EC50 in assay [1] was 0.38 µM; in assay [2], 0.09 µM.

In the case of `CCN(CC)C1CCN(C2CCN(c3ccc(Nc4ncc5cc6n(c5n4)C4(CCCCC4)CNC6=O)nc3)CC2)C1` (stereo not shown) [RR], the EC50 in assay [1] is 0.158 µM; in assay [2] it was 0.102 µM.

For `C[C@H](O)CN1CCN(c2ccc(Nc3ncc4cc5n(c4n3)C3(CCCC3)CNC5=O)nc2)C[C@H]1C` [XX], the EC50 was found to be 0.499 µM in assay [1] and 0.094 µM in assay [2].

Regarding `O=C1NCC2(CCCC2)n2c1cc1cnc(Nc3ccc(N4CCNCC4)cn3)nc12` [QQQ], the EC50 was determined as 0.485 µM in assay [1] and 0.258 µM in assay [2].

`O=C1NCC2(CCCCC2)n2c1cc1cnc(Nc3ccc(N4CCNCC4)cn3)nc12` [Q]: the EC50 worked out at 0.561 µM in assay [1] and 0.04 µM in assay [2].

On to `C[C@@H]1CN(c2ccc(Nc3ncc4cc5n(c4n3)C3(CCCCC3)CNC5=O)nc2)C[C@H](C)N1` [P], for which the results for the EC50 in assay [1] and in assay [2] were 0.14 µM and 0.033 µM, respectively.

As to `O=C1NCC2(CCCCC2)n2c1cc1cnc(Nc3ccc(C(=O)N4CCNCC4)cn3)nc12` [Y], the EC50 in assay [1] stood at 0.548 µM; in assay [2], 0.085 µM.

Turning to `O=C1NCC2(CCCCC2)n2c1cc1cnc(Nc3ccc(C(=O)N4CCN(C5CCC5)CC4)cn3)nc12` [LL], the EC50 was determined as 0.501 µM in assay [1] and 0.084 µM in assay [2].

As for `CC1CN(c2ccc(Nc3ncc4cc5n(c4n3)C3(CCCCC3)CNC5=O)nc2)CC(C)N1CC1CC1` (stereo not shown) [OO], the EC50 stood at 0.88 µM in assay [1] and 0.114 µM in assay [2].

For `CCN(CC)C1CCN(c2ccc(Nc3ncc4cc5n(c4n3)C3(CCCCC3)CNC5=O)nc2)CC1` [CC], the EC50 in assay [1] stood at 0.111 µM; in assay [2], 0.017 µM.

Take `O=C1NCC2(CCCC2)n2c1cc1cnc(Nc3ccc(N4CCC(N5CCCCC5)CC4)cn3)nc12` [HHH]: the EC50 in assay [1] came out at 0.984 µM; in assay [2] it was 0.085 µM.

`CN(C)C1CCN(c2ccc(Nc3ncc4cc5n(c4n3)C3(CCCCC3)CNC5=O)nn2)CC1` [SS]: the EC50 in assay [1] came out at 0.967 µM; in assay [2], 0.011 µM.

As to `CC(C)(C)CCN1CCN(c2ccc(Nc3ncc4cc5n(c4n3)C3(CCCC3)CNC5=O)nc2)CC1(C)C` [CCC], the EC50 in assay [1] was 1.86 µM; in assay [2], 0.133 µM.

On to `CCOCCN1CCN(c2ccc(Nc3ncc4cc5n(c4n3)C3(CCCC3)CNC5=O)nc2)CC1` [MMM], for which the EC50 in assay [1] came out at 0.294 µM; in assay [2] it was 0.037 µM.

On to `C[C@H](O)CN1CCN(c2ccc(Nc3ncc4cc5n(c4n3)C3(CCCCC3)CNC5=O)nc2)CC1` [A], for which the EC50 in assay [1] was 0.281 µM; in assay [2] it was 0.057 µM.

As for `CC1CN(c2ccc(Nc3ncc4cc5n(c4n3)C3(CCCCC3)CNC5=O)nc2)CCN1CCC(C)(C)C` (stereo not shown) [G], the EC50 is 1.53 µM in assay [1] and 0.156 µM in assay [2].

For `CC(C)C[C@@H]1CNC(=O)c2cc3cnc(Nc4ccc(N5CCNCC5)cn4)nc3n21` [WWW], the EC50 in assay [1] was 1.27 µM; in assay [2], 0.264 µM.

Consider `CC1CCN(C2CCN(c3ccc(Nc4ncc5cc6n(c5n4)C4(CCCCC4)CNC6=O)nc3)CC2)C1` (stereo not shown) [K], for which the values for the EC50 in assay [1] and in assay [2] were 0.167 µM and 0.134 µM, respectively.

Turning to `CC(C)N1CCN(c2ccc(Nc3ncc4cc5n(c4n3)C3(CCCCC3)CNC5=O)nc2)C[C@H]1C` [L], the EC50 in assay [1] was determined as 1.26 µM; in assay [2], 0.153 µM.

As to `CC(C)N1CCN(C(=O)c2ccc(Nc3ncc4cc5n(c4n3)C3(CCCCC3)CNC5=O)nc2)CC1` [II], the EC50 in assay [1] stood at 0.347 µM; in assay [2] it was 0.042 µM.

The values are drawn from US10709711B2 (G1 Therapeutics, Inc., priority 2013, dated 2020).
